Reference: patent US12497394B2, “Fused-cyclic pyrazolone formamide compound and preparation method therefor, pharmaceutical composition and use thereof” (SHANGHAI INSTITUTE OF MATERIA MEDICA, CHINESE ACADEMY OF …, priority 2018, dated 2025)
Values joined by “and” are separate entries in the source; they are usually repeats but may differ in a detail not shown here. Equal entries are not always repeated.

How the values were obtained:
[1] = molecular target: receptor tyrosine kinase c-Met (Homo sapiens, UniProt P08581); experiment: In vitro c-Met kinase inhibitory activity; assay type: biochemical; details: two values per compound; for inhibition at 0.01 µM / inhibition at 0.1 µM / inhibition at 0.001 µM: read-out: c-Met Inhibitory rate (%)
Sequence of receptor tyrosine kinase c-Met (P08581 25-1390): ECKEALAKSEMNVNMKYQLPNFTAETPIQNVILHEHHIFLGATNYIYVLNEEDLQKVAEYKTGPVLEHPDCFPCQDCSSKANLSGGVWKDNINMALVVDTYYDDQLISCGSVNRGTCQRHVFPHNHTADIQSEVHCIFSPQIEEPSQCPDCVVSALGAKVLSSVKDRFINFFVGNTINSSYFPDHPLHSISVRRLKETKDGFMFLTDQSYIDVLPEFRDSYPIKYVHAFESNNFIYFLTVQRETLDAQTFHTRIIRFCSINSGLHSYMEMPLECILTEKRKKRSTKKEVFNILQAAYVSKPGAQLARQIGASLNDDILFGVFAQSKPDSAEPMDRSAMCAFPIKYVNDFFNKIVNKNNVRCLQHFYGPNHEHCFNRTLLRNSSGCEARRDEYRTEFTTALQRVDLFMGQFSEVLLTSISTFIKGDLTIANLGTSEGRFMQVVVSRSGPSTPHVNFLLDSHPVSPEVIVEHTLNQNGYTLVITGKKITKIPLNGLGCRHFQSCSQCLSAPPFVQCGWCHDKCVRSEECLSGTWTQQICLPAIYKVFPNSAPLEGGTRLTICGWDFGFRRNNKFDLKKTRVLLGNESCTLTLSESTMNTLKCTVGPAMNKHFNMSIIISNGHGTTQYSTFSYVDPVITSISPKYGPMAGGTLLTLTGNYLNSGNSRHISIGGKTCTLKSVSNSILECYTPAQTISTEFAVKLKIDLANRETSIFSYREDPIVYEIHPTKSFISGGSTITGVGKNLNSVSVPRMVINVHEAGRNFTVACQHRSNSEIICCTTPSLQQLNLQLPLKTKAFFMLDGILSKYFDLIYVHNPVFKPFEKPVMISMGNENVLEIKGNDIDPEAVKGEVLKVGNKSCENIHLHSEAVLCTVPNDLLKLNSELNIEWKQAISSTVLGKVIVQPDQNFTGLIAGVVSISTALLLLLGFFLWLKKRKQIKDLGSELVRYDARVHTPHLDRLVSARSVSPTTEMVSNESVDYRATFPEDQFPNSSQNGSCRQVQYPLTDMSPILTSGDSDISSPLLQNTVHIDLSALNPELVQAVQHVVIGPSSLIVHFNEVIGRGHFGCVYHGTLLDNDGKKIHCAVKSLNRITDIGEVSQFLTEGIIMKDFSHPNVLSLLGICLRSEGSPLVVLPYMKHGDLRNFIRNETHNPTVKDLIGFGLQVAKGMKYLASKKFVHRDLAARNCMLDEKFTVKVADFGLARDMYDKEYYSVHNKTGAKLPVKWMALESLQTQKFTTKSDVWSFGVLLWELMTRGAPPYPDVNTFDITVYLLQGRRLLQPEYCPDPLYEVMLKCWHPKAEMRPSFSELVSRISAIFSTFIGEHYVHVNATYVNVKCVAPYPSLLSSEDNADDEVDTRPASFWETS
Excerpt: Experimental Example 3: Study of In Vitro c-Met Kinase Inhibitory Activity
Since the screening results of 369 kinase profiles of compound DC621044 has shown that the compound has a certain inhibitory activity on c-Met. We further screened some compounds for their inhibitory activity on c-Met kinase.

BaF3/TEL-AXL cells = experiment: Proliferation of BaF3/TEL-AXL cells; assay type: cell-based; details: two values per compound; for inhibition at 0.01 µM / inhibition at 0.1 µM / inhibition at 0.001 µM: BaF3/TEL-AXL, read-out: BaF3/TEL-AXL proliferation Inhibitory rate (%)
Excerpt: Experimental Example 4: Effect of the Compound on the Proliferation Effect of BaF3/TEL-AXL Cells
Based on the above-mentioned enzyme activity research results, we further explored the effect of the compound on cell proliferation mediated by receptor tyrosine kinase AXL.

c-Met Inhibitory rate (%) ([1]; 1 nM, 0.001 µM) | inhibition at 0.001 µM ([1]; 1 nM) | Compound | c-Met Inhibitory rate (%) ([1]; 10 nM, 0.01 µM) | inhibition at 0.01 µM ([1]; 10 nM) | c-Met Inhibitory rate (%) ([1]; 100 nM, 0.1 µM) | inhibition at 0.1 µM ([1]; 100 nM) | BaF3/TEL-AXL proliferation Inhibitory rate (%) (BaF3/TEL-AXL cells; 10 nM, 0.01 µM) | BaF3/TEL-AXL proliferation Inhibitory rate (%) (BaF3/TEL-AXL cells; 100 nM, 0.1 µM) | inhibition at 0.01 µM (BaF3/TEL-AXL cells; 10 nM) | inhibition at 0.1 µM (BaF3/TEL-AXL cells; 100 nM) | BaF3/TEL-AXL proliferation Inhibitory rate (%) (BaF3/TEL-AXL cells; 1 nM, 0.001 µM) | inhibition at 0.001 µM (BaF3/TEL-AXL cells; 1 nM)
 |  | COc1cc2ncnc(Oc3ccc(NC(=O)c4c5n(n(-c6ccccc6)c4=O)CCCC5)cc3F)c2cc1OC [DC621011, N-(4-((6,7-dimethoxyquinazoline-4-yl)oxy)-3-fluorophenyl)-2-oxo-1-phenyl-1,2,4,5,6,7-hexahydropyrazolo[1,5-a]pyridine-3-formamide] | 89.2% | 74.4% | 100% | 86.6% | 56.1% | 83.9% | 60.5% | 84.8% |  | 
34.8% and 63.9% |  | COc1cc2ncnc(Oc3ccc(NC(=O)c4c5n(n(-c6ccccc6F)c4=O)CCCC5)cc3F)c2cc1OC [DC621034, N-(4-((6,7-dimethoxyquinazoline-4-yl)oxy)-3-fluorophenyl)-1-(2-fluorophenyl)-2-oxo-1,2,4,5,6,7-hexahydropyrazolo[1,5-a]pyridine-3-formamide] | 66.5% | 48.3% | 97.0% | 97.5% |  |  |  |  |  | 
43.0% | 32.7% | O=C(Nc1ccc(Oc2ncnc3[nH]cc(-c4ccccc4)c23)c(F)c1)c1c2n(n(-c3ccccc3)c1=O)CCCC2 [DC621052, N-(3-fluoro-4-((5-phenyl-7H-pyrrolo[2,3-d]pyrimidin-4-yl)oxy)phenyl)-2-oxo-1-phenyl-1,2,4,5,6,7-hexahydropyrazolo[1,5-a]pyridine-3-formamide] | 55.1% and 85.0% |  | 94.1% | 84.5% |  |  |  |  |  | 
 |  | COc1cc2ncnc(Oc3ccc(NC(=O)c4c5n(n(-c6cc(F)ccc6F)c4=O)CCCC5)c(F)c3)c2cc1OC [DC621053, 1-(2,5-difluorophenyl)-N-(4-((6,7-dimethoxyquinazoline-4-yl)oxy)-2-fluorophenyl)-2-oxo-1,2,4,5,6,7-hexahydropyrazolo[1,5-a]pyridine-3-formamide] | 68.5% | 50.9% | 98.7% | 92.8% | 71.6% | 84.2% | 67.5% | 83.8% | 56.7% | 65.3%
30.8% and 53.9% |  | O=C(Nc1ccc(Oc2ncnc3[nH]cc(-c4ccccc4)c23)c(F)c1)c1c2n(n(-c3cc(F)ccc3F)c1=O)CCCC2 [DC621055, 1-(2,5-difluorophenyl)-N-(3-fluoro-4-((5-phenyl-7H-pyrrolo[2,3-d]pyrimidin-4-yl)oxy)phenyl)-2-oxo-1,2,4,5,6,7-hexahydropyrazolo[1,5-a]pyridine-3-formamide] | 74.2% | 68.2% | 100% | 96% |  |  |  |  |  | 
 |  | COc1cc2ncnc(Oc3ccc(NC(=O)c4c5n(n(-c6ccccc6F)c4=O)CCCC5)c(F)c3)c2cc1OC [DC621056, N-(4-((6,7-dimethoxyquinazoline-4-yl)oxy)-2-fluorophenyl)-1-(2-fluorophenyl)-2-oxo-1,2,4,5,6,7-hexahydropyrazolo[1,5-a]pyridine-3-formamide] | 72.8% and 49.8% |  | 94.1% | 92% | 74.1% | 84.9% | 70% | 86.6% | 58.8% | 45.3%
 |  | O=C(Nc1ccc(Oc2ncnc3[nH]cc(-c4ccccc4)c23)c(F)c1)c1c2n(n(-c3ccccc3F)c1=O)CCCC2 [DC621058, N-(3-fluoro-4-((5-phenyl-7H-pyrrolo[2,3-d]pyrimidin-4-yl)oxy)phenyl)-1-(2-fluorophenyl)-2-oxo-1,2,4,5,6,7-hexahydropyrazolo[1,5-a]pyridine-3-formamide] | 45.1% | 54.6% | 83.6% | 89.2% |  |  |  |  |  | 
 |  | COc1cc2ncnc(Oc3ccc(NC(=O)c4c5n(n(-c6ccc(F)cc6)c4=O)CCCC5)c(F)c3)c2cc1OC [DC621059, N-(4-((6,7-dimethoxyquinazoline-4-yl)oxy)-2-fluorophenyl)-1-(4-fluorophenyl)-2-oxo-1,2,4,5,6,7-hexahydropyrazolo[1,5-a]pyridine-3-formamide] |  |  |  |  | 82.7% | 84.2% | 71.4% | 83.7% | 78.3% | 68.4%
19.6% | 27.2% | COc1cc2ncnc(Oc3ccc(NC(=O)c4c5n(n(-c6ccc(F)cc6)c4=O)CCCC5)cc3C(F)(F)F)c2cc1OC [DC621101, N-(4-((6,7-dimethoxyquinazoline-4-yl)oxy)-3-trifluoromethylphenyl)-1-(4-fluorophenyl)-2-oxo-1,2,4,5,6,7-hexahydropyrazolo[1,5-a]pyridine-3-formamide] | 60.9% | 75% | 91.0% | 96.5% |  |  |  |  |  | 
17.2% | 25.6% | COCCOc1cc2ncnc(Oc3ccc(NC(=O)c4c5n(n(-c6ccc(F)cc6)c4=O)CCCC5)cc3C(F)(F)F)c2cc1OCCOC [DC621102, N-(4-((6,7-bis(2-methoxyethoxy)quinazolin-4-yl)oxy)-3-trifluoromethylphenyl)-1-(4-fluorophenyl)-2-oxo-1,2,4,5,6,7-hexahydropyrazolo[1,5-a]pyridine-3-formamide] | 77.2% and 53.4% |  | 93.9% | 99.1% |  |  |  |  |  | 

Compound | c-Met Inhibitory rate (%) ([1]; 1 nM, 0.001 µM) | inhibition at 0.001 µM ([1]; 1 nM) | c-Met Inhibitory rate (%) ([1]; 10 nM, 0.01 µM) | inhibition at 0.01 µM ([1]; 10 nM) | c-Met Inhibitory rate (%) ([1]; 100 nM, 0.1 µM) | inhibition at 0.1 µM ([1]; 100 nM) | BaF3/TEL-AXL proliferation Inhibitory rate (%) (BaF3/TEL-AXL cells; 10 nM, 0.01 µM) | BaF3/TEL-AXL proliferation Inhibitory rate (%) (BaF3/TEL-AXL cells; 100 nM, 0.1 µM) | inhibition at 0.01 µM (BaF3/TEL-AXL cells; 10 nM) | inhibition at 0.1 µM (BaF3/TEL-AXL cells; 100 nM) | BaF3/TEL-AXL proliferation Inhibitory rate (%) (BaF3/TEL-AXL cells; 1 nM, 0.001 µM) | inhibition at 0.001 µM (BaF3/TEL-AXL cells; 1 nM)
COc1cc2nccc(Oc3ccc(NC(=O)c4c5n(n(-c6ccccc6)c4=O)CCCC5)cc3F)c2cc1OC [DC621001, N-(4-((6,7-dimethoxyquinoline-4-yl)oxy)-3-fluorophenyl)-2-oxo-1-phenyl-1,2,4,5,6,7-hexahydropyrazolo[1,5-a]pyridine-3-formamide] | 51.7% and 72.4% |  | 97.6% | 84.7% | 100% | 92% | 59.1% | 71.3% | 54.9% | 82% |  | 
COc1cc2ncnc(Oc3ccc(NC(=O)c4c5n(n(-c6cc(F)ccc6F)c4=O)CCCC5)cc3)c2cc1OC [DC621022, 1-(2,5-difluorophenyl)-N-(4-((6,7-dimethoxyquinazoline-4-yl)oxy)phenyl)-2-oxo-1,2,4,5,6,7-hexahydropyrazolo[1,5-a]pyridine-3-formamide] | 51.1% | 35.4% | 57.0% | 41.7% | 96.5% | 81.9% | 58.0% | 80.9% | 71.8% | 83.2% | 48.3% | 66.3%
COc1cc2ncnc(Oc3ccc(NC(=O)c4c5n(n(-c6cc(F)ccc6F)c4=O)CCCC5)cc3F)c2cc1OC [DC621023, 1-(2,5-difluorophenyl)-N-(4-((6,7-dimethoxyquinazoline-4-yl)oxy)-3-fluorophenyl)-2-oxo-1,2,4,5,6,7-hexahydropyrazolo[1,5-a]pyridine-3-formamide] | 60.9% | 58.9% | 92.3% | 80.9% | 100% | 99.2% | 67.6% | 65.0% | 66.5% | 76.8% | 62.2% and 41.4% | 
